Earlier results as cited in patent publication US20230330076A1, “CONTROLLED RELEASE FORMULATIONS OF FLAVOXATE AND PROCESS FOR PREPARATION THEREOF” (priority 2021, published 2023).
Like-named read-outs stand apart in the source and are kept apart here.

Columns and labels:
[1] = not given; remark: listed apart in the source
[2] = tested on: α- and β-noradrenergic, muscarinic, serotoninergic and opiate receptors, and calcium binding sites; details: rat brain tissue

Row | apparent volume of distribution (in vivo, iv, 100 mg) | Molecule | time of peak level of MFCA ([1]; single oral 200 mg dose) | time of peak level of MFCA ([1]; single oral 400 mg dose) | AUC for the 400 mg dose relative to the 200 mg dose ([1]; single oral dosing) | dose excreted as MFCA ([1]; single oral dosing, within 12 hours) | binding activity on receptors [2] | T½ (IV dose equimolar to 100 mg) | apparent volume of distribution (IV dose equimolar to 100 mg) | dose excreted as MFCA (IV dose equimolar to 100 mg, urine)
1 | 0.20 L/kg | 3-methylflavone carboxylic acid [MFCA] |  |  |  |  |  |  |  | 
2 |  | Cc1c(-c2ccccc2)oc2c(C(=O)OCCN3CCCCC3)cccc2c1=O.Cl [Flavoxate hydrochloride, 2-piperidinoethyl 3-methylflavone-8-carboxylate hydrochloride] | 30 to 60 min | around two hours | approximately twice as large | About 50% | only weak binding activity | 1.39 h | 2.89 L/kg | 47%
